Measured values from patent US11590139B2, “Substituted aminopurine compounds, compositions thereof, and methods of treatment therewith” (Signal Pharmaceuticals, LLC, priority 2014, dated 2023).

Tested on: Lox-IMVI melanoma cell line
Assay: Lox-IMVI anti-proliferative assay (growth inhibition, Cell Titer-Glo)
Format: cell-based, human
Conditions: Homo sapiens; IC50 activity level in the cell-based Lox-IMVI anti-proliferative assay; read-out: Activity
Method in brief: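 RPMI/10% FBS; cmpd 0.5 nM–10 μM, 3-fold ×10, duplicate, 0.2% DMSO final; 72 h, 37 °C, 5% CO2. ATP-luminescence readout at t0 and 72 h. IC50 = 50% of DMSO control, 4-parameter logistic fit.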

Row | SMILES | IC50 [µM]
1 | CC[C@@H](CO)Nc1ncc2nc(Nc3cccc(Cl)c3F)n([C@H]3CC[C@@H](C(N)=O)CC3)c2n1 [Example 150, (1R,4s)-4-(8-(3-chloro-2-fluorophenylamino)-2-((S)-1_ hydroxybutan-2-ylamino)-9H-purin-9-yl)cyclohexanecarboxamide] | > 1
2 | CC[C@@H](CO)Nc1ncc2nc(Nc3ccc(F)c(F)c3F)n([C@H]3CC[C@@H](C(N)=O)CC3)c2n1 [Example 151, (1R,4s)-4-(2-((S)-1-hydroxybutan-2-ylamino)-8-(2,3,4-trifluorophenylamino)-9H-purin-9-yl)cyclohexanecarboxamide] | > 1
3 | C[C@@H](O)CNc1ncc2nc(Nc3c(Cl)cc(Cl)cc3Cl)n([C@H]3CC[C@@H](C(N)=O)CC3)c2n1 [Example 152, (1S,4s)-4-(2-((R)-2-hydroxypropylamino)-8-(2,4,6-trichlorophenylamino)-9H-purin-9-yl)cyclohexanecarboxamide] | > 1
4 | CC[C@@H](CO)Nc1ncc2nc(Nc3c(Cl)cccc3Cl)n([C@H]3CC[C@@H](C(N)=O)CC3)c2n1 [Example 153, (1R,4s)-4-(8-(2,6-dichlorophenylamino)-2-((S)-1-hydroxybutan-2-ylamino)-9H-purin-9-yl)cyclohexanecarboxamide] | > 1
5 | CC[C@@H](CO)Nc1ncc2nc(Nc3c(Cl)cc(Cl)cc3Cl)n([C@H]3CC[C@@H](C(N)=O)CC3)c2n1 [Example 154, (1R,4s)-4-(2-((S)-1-hydroxybutan-2-ylamino)-8-(2,4,6-trichlorophenylamino)-9H-purin-9-yl)cyclohexanecarboxamide] | > 1
6 | CC(C)(C)OC(=O)N1CC[C@H](Nc2ncc3nc(Nc4c(F)cc(Cl)cc4F)n([C@H]4CC[C@@H](C(N)=O)CC4)c3n2)[C@H](F)C1 [Example 155, (3R,4S)-tert-butyl 4-(9-((1s,4R)-4-carbamoylcyclohexyl)-8-(4-chloro-2,6-difluorophenylamino)-9H-purin-2-ylamino)-3-fluoropiperidine-1-carboxylate] | > 1
7 | NC(=O)[C@H]1CC[C@@H](n2c(Nc3c(F)cc(Cl)cc3F)nc3cnc(NC4CCS(=O)(=O)CC4)nc32)CC1 [Example 156, (1s,4s)-4-(8-((4-chloro-2,6-difluorophenyl)amino)-2-((1,1-dioxidotetrahydro-2H-thiopyran-4-yl)amino)-9H-purin-9-yl)cyclohexane-1-carboxamide] | > 1
8 | NC(=O)[C@H]1CC[C@@H](n2c(Nc3c(F)cc(Cl)cc3Cl)nc3cnc(NC4CCS(=O)(=O)CC4)nc32)CC1 [Example 157, (1s,4s)-4-(8-((2,4-dichloro-6-fluorophenyl)amino)-2-((1,1-dioxidotetrahydro-2H-thiopyran-4-yl)amino)-9H-purin-9-yl)cyclohexane-1-carboxamide] | > 1
9 | CC(C)(C)OC(=O)N1CCC[C@@H](Nc2ncc3nc(Nc4c(F)cc(F)cc4F)n([C@H]4CC[C@@H](C(N)=O)CC4)c3n2)C1 [Example 158, (R)-tert-butyl 3-(9-((1s,4S)-4-carbamoylcyclohexyl)-8-(2,4,6-trifluorophenylamino)-9H-purin-2-ylamino)piperidine-1-carboxylate] | > 1
10 | CC(C)(C)OC(=O)N1CCC[C@@H](Nc2ncc3nc(Nc4c(F)cccc4F)n([C@H]4CC[C@@H](C(N)=O)CC4)c3n2)C1 [Example 159, (R)-tert-butyl 3-(9-((1s,4S)-4-carbamoylcyclohexyl)-8-(2,6-difluorophenylamino)-9H-purin-2-ylamino)piperidine-1-carboxylate] | > 1
11 | CC(C)(C)OC(=O)N1CCC[C@@H](Nc2ncc3nc(Nc4c(Cl)cccc4Cl)n([C@H]4CC[C@@H](C(N)=O)CC4)c3n2)C1 [Example 160, (R)-tert-butyl 3-(9-((1s,4S)-4-carbamoylcyclohexyl)-8-(2,6-dichlorophenylamino)-9H-purin-2-ylamino)piperidine-1-carboxylate] | > 1
12 | CC(C)(C)OC(=O)N1CCC[C@@H](Nc2ncc3nc(Nc4c(F)cc(F)cc4Cl)n([C@H]4CC[C@@H](C(N)=O)CC4)c3n2)C1 [Example 161, (R)-tert-butyl 3-(9-((1s,4S)-4-carbamoylcyclohexyl)-8-(2-chloro-4,6-fluorophenylamino)-9H-purin-2-ylamino)piperidine-1-carboxylate] | > 1
13 | CC(C)(C)OC(=O)N1CCC[C@@H](Nc2ncc3nc(Nc4c(F)cc(Cl)cc4F)n([C@H]4CC[C@@H](C(N)=O)CC4)c3n2)C1 [Example 162, (R)-tert-butyl 3-(9-((1s,4S)-4-carbamoylcyclohexyl)-8-(4-chloro-2,6-difluorophenylamino)-9H-purin-2-ylamino)piperidine-1-carboxylate] | > 1
14 | CC(C)(C)OC(=O)N1CCC[C@@H](Nc2ncc3nc(Nc4c(Cl)cc(Cl)cc4Cl)n([C@H]4CC[C@@H](C(N)=O)CC4)c3n2)C1 [Example 163, (R)-tert-butyl 3-(9-((1s,4S)-4-carbamoylcyclohexyl)-8-(2,4,6-trichlorophenylamino)-9H-purin-2-ylamino)piperidine-1-carboxylate] | > 1
15 | C[C@@H](CO)Nc1ncc2nc(Nc3c(F)cc(F)cc3F)n([C@H]3CC[C@@H](C(N)=O)CC3)c2n1 [Example 164, (1R,4s)-4-(2-((S)-1-hydroxypropan-2-ylamino)-8-(2,4,6-trifluorophenylamino)-9H-purin-9-yl)cyclohexanecarboxamide] | > 1
16 | C[C@@H](CO)Nc1ncc2nc(Nc3c(Cl)cc(Cl)cc3Cl)n([C@H]3CC[C@@H](C(N)=O)CC3)c2n1 [Example 165, (1R,4s)-4-(2-((S)-1-hydroxypropan-2-ylamino)-8-(2,4,6-trichlorophenylamino)-9H-purin-9-yl)cyclohexanecarboxamide] | 0.25 to 0.5
17 | C[C@@H](CO)Nc1ncc2nc(Nc3c(Cl)cc(F)cc3Cl)n([C@H]3CC[C@@H](C(N)=O)CC3)c2n1 [Example 166, (1R,4s)-4-(8-(2,6-dichloro-4-fluorophenylamino)-2-((S)-1-hydroxypropan-2-ylamino)-9H-purin-9-yl)cyclohexanecarboxamide] | 0.5 to 1
18 | C[C@@H](CO)Nc1ncc2nc(Nc3c(F)cccc3F)n([C@H]3CC[C@@H](C(N)=O)CC3)c2n1 [Example 167, (1R,4s)-4-(8-(2,6-difluorophenylamino)-2-((S)-1 hydroxypropan-2-ylamino)-9H-purin-9-yl)cyclohexanecarboxamide] | > 1
19 | C[C@@H](CO)Nc1ncc2nc(Nc3c(Cl)cccc3Cl)n([C@H]3CC[C@@H](C(N)=O)CC3)c2n1 [Example 168, (1R,4s)-4-(8-(2,6-dichlorophenylamino)-2-((S)-1 hydroxypropan-2-ylamino)-9H-purin-9-yl)cyclohexanecarboxamide] | > 1
20 | C[C@@H](CO)Nc1ncc2nc(Nc3c(F)cc(Cl)cc3F)n([C@H]3CC[C@@H](C(N)=O)CC3)c2n1 [Example 169, (1R,4s)-4-(8-(4-chloro-2,6-difluorophenylamino)-2-((S)-1-hydroxypropan-2-ylamino)-9H-purin-9-yl)cyclohexanecarboxamide] | 0.5 to 1
21 | C[C@@H](CO)Nc1ncc2nc(Nc3ccc(Cl)cc3Cl)n([C@H]3CC[C@@H](C(N)=O)CC3)c2n1 [Example 170, (1R,4s)-4-(8-(2,4-dichlorophenylamino)-2-((S)-1-hydroxypropan-2-ylamino)-9H-purin-9-yl)cyclohexanecarboxamide] | > 1
22 | C[C@@H](CO)Nc1ncc2nc(Nc3cc(Cl)ccc3F)n([C@H]3CC[C@@H](C(N)=O)CC3)c2n1 [Example 171, (1R,4s)-4-(8-(5-chloro-2-fluorophenylamino)-2-((S)-1-hydroxypropan-2-ylamino)-9H-purin-9-yl)cyclohexanecarboxamide] | > 1
23 | C[C@@H](CO)Nc1ncc2nc(Nc3cccc(Cl)c3F)n([C@H]3CC[C@@H](C(N)=O)CC3)c2n1 [Example 172, (1R,4s)-4-(8-(3-chloro-2-fluorophenylamino)-2-((S)-1-hydroxypropan-2-ylamino)-9H-purin-9-yl)cyclohexanecarboxamide] | > 1
24 | NC(=O)[C@H]1CC[C@@H](n2c(Nc3c(F)cccc3F)nc3cnc(NC4CC5(COC5)C4)nc32)CC1 [Example 173, (1s,4s)-4-(2-(2-oxaspiro[3.3]heptan-6-ylamino)-8-(2,6-difluorophenylamino)-9H-purin-9-yl)cyclohexanecarboxamide] | > 1
25 | NC(=O)[C@H]1CC[C@@H](n2c(Nc3c(Cl)cccc3Cl)nc3cnc(NC4CC5(COC5)C4)nc32)CC1 [Example 174, (1s,4s)-4-(2-(2-oxaspiro[3.3]heptan-6-ylamino)-8-(2,6-dichlorophenylamino)-9H-purin-9-yl)cyclohexanecarboxamide] | > 1
26 | NC(=O)[C@H]1CC[C@@H](n2c(Nc3c(F)cc(F)cc3Cl)nc3cnc(NC4CC5(COC5)C4)nc32)CC1 [Example 175, (1s,4s)-4-(2-(2-oxaspiro[3.3]heptan-6-ylamino)-8-(2-chloro-4,6-difluorophenylamino)-9H-purin-9-yl)cyclohexanecarboxamide] | 0.5 to 1
27 | NC(=O)[C@H]1CC[C@@H](n2c(Nc3c(F)cc(Cl)cc3F)nc3cnc(NC4CC5(COC5)C4)nc32)CC1 [Example 176, (1s,4s)-4-(2-(2-oxaspiro[3.3]heptan-6-ylamino)-8-(4-chloro-2,6-difluorophenylamino)-9H-purin-9-yl)cyclohexanecarboxamide] | > 1
28 | NC(=O)[C@H]1CC[C@@H](n2c(Nc3c(Cl)cc(Cl)cc3Cl)nc3cnc(NC4CC5(COC5)C4)nc32)CC1 [Example 177, (1s,4s)-4-(2-(2-oxaspiro[3.3]heptan-6-ylamino)-8-(2,4,6-trichlorophenylamino)-9H-purin-9-yl)cyclohexanecarboxamide] | 0.25 to 0.5
29 | NC(=O)[C@H]1CC[C@@H](n2c(Nc3c(F)cc(F)cc3F)nc3cnc(NC4COCC4O)nc32)CC1 (some centres unmarked) [Example 178, (1s,4s)-4-(2-(4-hydroxytetrahydrofuran-3-ylamino)-8-(2,4,6-trifluorophenylamino)-9H-purin-9-yl)cyclohexanecarboxamide] | > 1
